Assay results published in the supplement of paper PMC11061612.

Assays:
RH-18 (Rhabdomyosarcoma) [1] = assay: Bliss excess, mean over the matrix (fraction); higher = more synergy
In short: (§1)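 Bliss excess equals the observed combination effect minus the expected value EA + EB − EA·EB, where EA and EB are the effects of each agent alone. Combination Emax is the second-highest inhibition within the matrix. Inhibition was scaled from CellTiter-Glo 2.0 luminescence, with 0 set by vehicle wells and 1 by blank wells, after 72 hours of two-drug dosing of cells plated in 1536-well plates.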

SIMA (Neuroblastoma) [2] = assay: as above
In short: as §1

[3] = tested on: RT-112 (Bladder Carcinoma); assay: combination Emax (second highest fraction inhibited in the dose matrix, 72 h); higher = more inhibition; extreme values may be limits of the assay
In short: as §1

[4] = tested on: HCC-15 (Squamous Cell Lung Carcinoma); assay: as above
In short: as §1

RH-18 (Rhabdomyosarcoma) [5] = assay: as above
In short: as §1

[6] = tested on: Hs-633T (Other Solid Carcinomas); assay: as above
In short: as §1

SIMA (Neuroblastoma) [7] = assay: as above
In short: as §1

[8] = tested on: SK-OV-3 (Ovarian Carcinoma); assay: as above
In short: as §1

[9] = tested on: SW626 (Colorectal Carcinoma); assay: as above
In short: as §1

[10] = tested on: LU-139 (Small Cell Lung Carcinoma); assay: as above
In short: as §1

NCI-H28 (Mesothelioma) = assay: as above
In short: as §1

[11] = tested on: 639-V (Bladder Carcinoma); assay: as above
In short: as §1

Row | Compound | Bliss excess (RH-18 (Rhabdomyosarcoma) [1]) | Bliss excess (SIMA (Neuroblastoma) [2]) | combination Emax [3] | combination Emax [4] | combination Emax (RH-18 (Rhabdomyosarcoma) [5]) | combination Emax [6] | combination Emax (SIMA (Neuroblastoma) [7]) | combination Emax [8] | combination Emax [9] | combination Emax [10] | combination Emax (NCI-H28 (Mesothelioma)) | combination Emax [11]
1 | COc1cc2c(cc1OCCCCCOc1cc3c(cc1OC)C(=O)N1C=C(C)C[C@H]1C=N3)N=C[C@@H]1CC(C)=CN1C2=O [SG3199] + O=C(c1cc(Cc2n[nH]c(=O)c3ccccc23)ccc1F)N1CCN(C(=O)C2CC2)CC1 [Olaparib] (first compound max 0.001 µM, 7x7, partner max 10 µM) | -0.0378 | -0.0214 | 0.1 | 0.145 | 0.174 | 0.142 | 0.421 | 0.0705 | 0.102 | 0.174 | 0.0051 | 0.201
2 | COc1cccc(OCCCN)c1-c1cc(Nc2cnc(C#N)cn2)n[nH]1 [Prexasertib] + C[C@@H]1COCCN1C2=NC(=NC(=C2)C3(CC3)[S@](=N)(=O)C)C4=C5C=CNC5=NC=C4 [AZD6738] (first compound max 1 µM, 7x7, partner max 10 µM) | 0.076 | -0.0198 | 0.992 | 0.33 | 0.475 | 0.936 | 0.989 | 0.806 | 0.743 | 0.598 | 0.592 | 0.397
3 | CN(C)CCCOc1ccc(-c2ccc3ncc4c(c3c2)n(C2CCOCC2)c(=O)n4C)cn1 [AZD0156] + CCN(CCO)CCCOc1ccc2c(Nc3cc(CC(=O)Nc4cccc(F)c4)[nH]n3)ncnc2c1 [AZD2811] (first compound max 1 µM, 7x7, partner max 1 µM) | -0.0253 | -0.0085 | 0.205 | 0.665 | 0.136 | 0.373 | 0.131 | 0.138 | 0.0884 | 0.279 | 0.149 | 0.179
4 | C=CCn1c(=O)c2cnc(Nc3ccc(N4CCN(C)CC4)cc3)nc2n1-c1cccc(C(C)(C)O)n1 [AZD1775] + C[C@@H]1COCCN1C2=NC(=NC(=C2)C3(CC3)[S@](=N)(=O)C)C4=C5C=CNC5=NC=C4 [AZD6738] (first compound max 1 µM, partner max 10 µM) | -0.0014 | 0.0547 | 0.966 | 0.504 | 0.625 | 0.937 | 0.906 | 0.755 | 0.743 | 0.721 | 0.618 | 0.457
5 | CCN(CCO)CCCOc1ccc2c(Nc3cc(CC(=O)Nc4cccc(F)c4)[nH]n3)ncnc2c1 [AZD2811] + C=CCn1c(=O)c2cnc(Nc3ccc(N4CCN(C)CC4)cc3)nc2n1-c1cccc(C(C)(C)O)n1 [AZD1775] (first compound max 1 µM, partner max 1 µM) | -0.0471 | -0.0113 | 0.531 | 0.723 | 0.245 | 0.649 | 0.855 | 0.434 | 0.427 | 0.567 | 0.278 | 0.265
